Source: patent publication US7585826B2, “Compositions counteracting pesticides and malodorants” (priority 2007, dated 2009)

Assays:
[1] = Decomposition rate of 17 pesticides mixed with the composition prepared in Example 1 (HPLC), against tap water or 10% brine controls; format: physicochemical; conditions: 10 ppm pesticide, composition of Example 1, 5 min; among seventeen pesticides
Experimental: The above-prepared composition was tested to decompose 17 pesticides, i.e., Diazinon, Terbufos, Acephate, Glyphosate, Phosmet, Mevinphos, Benomyl, Metalaxyl, Pyrnetrozine, Methomyl, Fenobucard, Carbendazim, Pencycuron, Hexaconazole, Thiophanate-methyl, Cartap, and Thiabendazole. The decomposition rates were measured as follows:
Each pesticide was dissolved in tap water at a concentration of 10 ppm. 10 mL pesticide solution was mixed with 10 mL of the composition prepared in Example 1 for 5 min. 10 mL pesticide solution was also mixed with 10 mL tap water or 10 mL 10% brine solution to prepare control solution. The pesticide concentration of each tested reaction solution was measured by high performance liquid chromatography.

[2] = Time-course decomposition of pesticides reacted with the composition prepared in Example 1 (HPLC); format: physicochemical; conditions: 7.5 mL of 10 ppm pesticide + 2.5 mL composition of Example 1; after 5.0 min reaction time
Experimental: 7.5 mL of a pesticide solution, containing 10 ppm Terbufos, Diazinon, Hexaconazole, or Fenobucard, was allowed to react with 2.5 mL of the composition prepared in Example 1 for 1.0 min, 3.0 min, and 5.0 min, respectively. HPLC was used to determine the concentrations of the pesticide.

In the case of `COP(=O)(NC(C)=O)SC` (stereo not shown) [Acephate], the “decomposition rate compared with the other pesticides tested” value [1] is reported as “higher rates than the others”.

With `CCOP(=S)(OCC)Oc1cc(C)nc(C(C)C)n1` [Diazinon] the pesticide decomposed [2] was 87%.

`CCC(C)c1ccccc1OC(=O)NC` (stereo not shown) [Fenobucard] gave a pesticide decomposed [2] of 76%.

For `CCCCC(O)(Cn1cncn1)c1ccc(Cl)cc1Cl` (stereo not shown) [Hexaconazole], the “decomposition rate compared with the other pesticides tested” value [1] was “higher rates than the others” and the pesticide decomposed [2] was 85%.

With `CCOP(=S)(OCC)SCSC(C)(C)C` [Terbufos] the “decomposition rate compared with the other pesticides tested” value [1] was “higher rates than the others” and the pesticide decomposed [2] was 91%.
